“Also recorded” adds a separate entry of the source. Like-named read-outs stand apart in the source and are kept apart here.
How the values were obtained:
rat adipocytes = test: Lipogenesis bioassay ([U-14C]glucose incorporation into lipids) in rat adipocytes; type: cell-based; conditions: for Percent of maximal effect of insulin, Amino acid-HXM only (10 μM): free amino acid monohydroxamate 10 μM, lipogenesis; for Net Potentiating Effect (%): potentiation of lipogenic capacity of VOCl2 10 μM by equimolar HXM; for Potentiation of the insulinomimetic (lipogenic) efficacy of VOCl2, in words / Synergizing effect relative to that exerted by Glu(γ)HXM: vanadium (+4); for Potentiation of the insulinomimetic (lipogenic) efficacy of VOCl2, in words: equimolar HXM; for Synergizing effect relative to that exerted by Glu(γ)HXM: 1:1 molar ratio
Procedure: The fat pads of male Wistar rats were cut into small pieces with scissors and suspended in 3 ml of KRB buffer. […] Five ml of buffer was then added, and the cells were passed through a mesh screen. The cells were then allowed to stand for several minutes in a 15-ml plastic test tube at room temperature, floating, and the buffer underneath was removed. This procedure (suspension, floating, and removal of buffer underneath) was repeated three times.
In the lipogenic assay, for measurement of glucose uptake and its incorporation into lipids (lipogenesis), the adipocyte suspensions (3×10^5 cells/ml) were divided into plastic vials (0.5 ml per vial) and incubated for 60 min at 37° C. under an atmosphere of carbogen with 0.2 mM [U-^14C]glucose (4-7 mCi/mol), in either the absence or presence of insulin (100 ng/ml), and the complexes to be tested.

Friend leukemia cells = conditions: in vitro; cited from earlier work
murine leukemia L5178Y [1] = conditions: in vivo; cited from earlier work
murine leukemia L5178Y [2] = conditions: in vitro; cited from earlier work
[3] = test system: vanadium-enriched adipocytes; test: Lipogenesis in vanadium-enriched versus normal adipocytes; type: cell-based, rat; conditions: rats given NaVO3 12 mg/kg/day s.c. for five days (FIG. 8)
Procedure: Lipogenesis was performed as described above using free Glu(γ)HXM to compare freshly prepared rat adipocytes (3×10^5 cells/ml) from non-enriched vanadium rats to the enriched-vanadium rats.

[4] = test system: isoproterenol mediated lipolysis; test: Inhibition of isoproterenol mediated lipolysis in vitro; type: cell-based
adipocytes = test: Hexose influx (2-deoxy-D-[6-3H]glucose) into adipocytes; type: cell-based, rat; conditions: for Hexose influx, in words: two different concentrations (FIG. 4)
Procedure: In order to test the specific effect of free Glu(γ)HXM and the Glu(γ)HXM:NaVO3 (2:1) complex on the entrance of glucose into cells, an in vitro assay was performed using 2-deoxy-D-[6-^3H]glucose (2-DG). 2-DG is a non-metabolized analog of glucose and this assay thus represents the influence of a compound on glucose influx to cells, independent of glucose metabolism.
Aliquots (70 μl) of the aforementioned samples were transferred into tubes that contained 2-deoxy-D-[6-^3H]glucose (0.1 mM final concentration). After 3 minutes, phloretin ([…]) was added in order to terminate the penetration of 2-DG into the cells. Samples of the suspended cells were then transferred to tubes with silicone oil where, upon centrifugation, the cells separate from the KRB medium and leftover 2-DG.

melanoma B16 cells = conditions: in vivo; cited from earlier work
leukemia L1210 = conditions: in vivo; cited from earlier work
leukemia L1210 cells = conditions: in vitro; cited from earlier work
STZ-rats = test: Blood glucose level in streptozocin(STZ)-treated rats; type: in vivo, rat
Procedure: (b) Streptozocin(STZ)-treated rats: Diabetes was induced by a single intravenous injection of a freshly prepared solution of streptozocin (55 mg/kg of body weight) in 0.1 M citrate buffer (pH 4.5).
Each group received daily i.p. injections of 0.05 mmol/kg (at 11.00 a.m.), of the corresponding compound.

InsRTK = InsRTK (Rattus norvegicus, UniProt P15127); conditions: cited from earlier work
Sequence of InsRTK (P15127 27-1383): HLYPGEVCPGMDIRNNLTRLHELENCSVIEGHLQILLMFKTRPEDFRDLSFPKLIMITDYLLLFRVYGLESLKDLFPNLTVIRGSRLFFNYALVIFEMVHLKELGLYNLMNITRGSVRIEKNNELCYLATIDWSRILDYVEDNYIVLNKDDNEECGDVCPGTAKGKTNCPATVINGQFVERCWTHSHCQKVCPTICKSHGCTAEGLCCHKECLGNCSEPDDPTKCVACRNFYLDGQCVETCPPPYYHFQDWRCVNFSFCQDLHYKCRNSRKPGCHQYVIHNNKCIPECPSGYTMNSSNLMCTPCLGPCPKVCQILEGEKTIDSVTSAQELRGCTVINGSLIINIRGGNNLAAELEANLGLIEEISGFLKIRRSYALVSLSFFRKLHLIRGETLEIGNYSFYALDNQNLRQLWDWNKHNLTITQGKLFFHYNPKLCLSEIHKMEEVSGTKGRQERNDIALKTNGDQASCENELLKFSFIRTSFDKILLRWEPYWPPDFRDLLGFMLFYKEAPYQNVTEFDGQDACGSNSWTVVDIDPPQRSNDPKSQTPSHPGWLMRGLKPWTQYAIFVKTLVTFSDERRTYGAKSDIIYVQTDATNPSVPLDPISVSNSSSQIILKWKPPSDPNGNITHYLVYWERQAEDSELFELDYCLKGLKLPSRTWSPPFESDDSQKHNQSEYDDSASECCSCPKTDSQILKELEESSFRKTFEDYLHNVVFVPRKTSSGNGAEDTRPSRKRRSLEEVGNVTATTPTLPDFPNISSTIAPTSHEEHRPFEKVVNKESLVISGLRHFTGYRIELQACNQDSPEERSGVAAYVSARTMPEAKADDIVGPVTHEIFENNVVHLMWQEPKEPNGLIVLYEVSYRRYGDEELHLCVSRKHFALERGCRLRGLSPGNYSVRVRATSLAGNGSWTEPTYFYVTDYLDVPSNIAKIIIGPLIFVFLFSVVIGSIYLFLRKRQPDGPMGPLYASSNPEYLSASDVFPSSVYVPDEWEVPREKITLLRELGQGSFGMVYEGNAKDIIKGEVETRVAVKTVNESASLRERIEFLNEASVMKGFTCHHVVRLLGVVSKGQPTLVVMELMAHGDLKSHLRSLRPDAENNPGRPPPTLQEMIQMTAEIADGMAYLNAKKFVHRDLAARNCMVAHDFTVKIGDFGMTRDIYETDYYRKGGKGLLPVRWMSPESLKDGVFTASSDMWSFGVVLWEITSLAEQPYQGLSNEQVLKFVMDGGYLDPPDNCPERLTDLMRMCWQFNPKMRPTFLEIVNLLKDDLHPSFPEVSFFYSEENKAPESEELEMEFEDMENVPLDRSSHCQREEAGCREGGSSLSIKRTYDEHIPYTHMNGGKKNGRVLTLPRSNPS

[5] = insulin 100 ng/ml, typical experiment

Molecule: CC(C)(N)C(=O)NO [Aib-HXM, aminoisobutyric acid monohydroxamate]
- Percent of maximal effect of insulin, Amino acid-HXM only (10 μM) (rat adipocytes): 0% (−3%)
- Net Potentiating Effect (%) (rat adipocytes): 0%

Molecule: N=C(N)NCCC[C@H](N)C(=O)NO [Arg-HXM, L-arginine hydroxamate]
- Percent of maximal effect of insulin, Amino acid-HXM only (10 μM) (rat adipocytes): 4%
- Net Potentiating Effect (%) (rat adipocytes): ˜2%

Molecule: N[C@H](CC(=O)NO)C(=O)O [D-Asp(β)HXM, D-Aspartic acid β-hydroxamate]
- Activity against Friend leukemia cells, in words (Friend leukemia cells): active
- Antitumoral activity, in words (murine leukemia L5178Y [1]): antitumoral activity
- Antitumoral activity, in words (murine leukemia L5178Y [2]): antitumoral activity

Molecule: N[C@H](CCC(=O)NO)C(=O)O [D-Glu(γ)HXM, D-glutamic acid γ-monohydroxamate]
- Synergistic action with vanadium, stereospecificity, in words (rat adipocytes): not facilitated
- Percent of maximal effect of insulin, Amino acid-HXM only (10 μM) (rat adipocytes): 1%
- Net Potentiating Effect (%) (rat adipocytes): 0%
- Potentiation of the insulinomimetic (lipogenic) efficacy of VOCl2, in words (rat adipocytes): did not potentiate

Molecule: N[C@@H](CCC(=O)NO)C(=O)O [Glu(γ)HXM, L-glutamic acid γ-monohydroxamate]
- Potentiation of intracellular vanadium in enriched-vanadium rat cells versus normal adipocytes, in words [3]: to a much greater extent
- Isoproterenol mediated lipolysis, in words [4]: inhibition of isoproterenol mediated lipolysis
- Glucose entry into cells, magnitude as % of maximal insulin response (adipocytes; 20 and 40 μM, 30 min preincubation (FIG. 4)): about 60%
- Hexose influx, in words (adipocytes): stimulate hexose influx
- Cytotoxicity, in words (melanoma B16 cells): cytotoxic
- Cytotoxicity, in words (leukemia L1210): cytotoxic
- Cytotoxicity, in words (leukemia L1210 cells): cytotoxic
- Lipogenesis in the absence of exogeneously added vanadium, in words (rat adipocytes; 10-100 μM (FIG. 6)): activates lipogenesis; also recorded: produce insulin effects
- Percent of maximal effect of insulin, Amino acid-HXM only (10 μM) (rat adipocytes): 22%
- Activation together with a saturated concentration of insulin, in words (rat adipocytes; in vitro): additive to maximal effect
- Net Potentiating Effect (%) (rat adipocytes): 51%
- Potentiation of vanadium (+5) in activating glucose metabolism in rat adipocytes (rat adipocytes; vanadium (+5)): 7-10 fold
- Elevation of the efficacy of vanadate to lower blood glucose levels (STZ-rats; STZ-treated diabetic rats): 5-7 fold

Molecule: N[C@@H](CC(=O)NO)C(=O)O [L-Asp(β)HXM, L-aspartic acid β-monohydroxamate]
- Synergizing effect relative to that exerted by Glu(γ)HXM (rat adipocytes): ~85%
- Percent of maximal effect of insulin, Amino acid-HXM only (10 μM) (rat adipocytes): 8%
- Net Potentiating Effect (%) (rat adipocytes): 54%

Molecule: NCCCC[C@H](N)C(=O)NO [Lys-HXM, L-lysine hydroxamate]
- Percent of maximal effect of insulin, Amino acid-HXM only (10 μM) (rat adipocytes): 0% (−4%)
- Net Potentiating Effect (%) (rat adipocytes): 0%

Molecule: CC(=O)N[C@@H](CCC(=O)NO)C(=O)O [N-acetyl Glu(γ)HXM, N-acetyl-L-glutamic acid γ-monohydroxamate]
- Percent of maximal effect of insulin, Amino acid-HXM only (10 μM) (rat adipocytes): 0%
- Net Potentiating Effect (%) (rat adipocytes): 0%
- Potentiation of the insulinomimetic (lipogenic) efficacy of VOCl2, in words (rat adipocytes): did not potentiate

Molecule: O=C(NO)c1cccnc1 [Nic-HXM, nicotinic acid hydroxamate]
- Synergizing effect relative to that exerted by Glu(γ)HXM (rat adipocytes): ~57%
- Percent of maximal effect of insulin, Amino acid-HXM only (10 μM) (rat adipocytes): 11%
- Net Potentiating Effect (%) (rat adipocytes): 29%

Molecule: CN[C@@H]1C[C@H]2O[C@@](C)([C@@H]1OC)n1c3ccccc3c3c4c(c5c6ccccc6n2c5c31)C(=O)NC4 [Staurosporine]
- Ki (InsRTK): ~1000 nM

Molecule: N[C@@H](Cc1c[nH]c2ccccc12)C(=O)NO [Trp-HXM, L-tryptophan hydroxamate]
- Percent of maximal effect of insulin, Amino acid-HXM only (10 μM) (rat adipocytes): 2%
- Net Potentiating Effect (%) (rat adipocytes): ˜9%

Molecule: Cl.Cl.[O]=[V] [VOCl2, vanadyl chloride]
- Effect on blood glucose levels of STZ-rats, in words (STZ-rats; i.p. 0.02 mmol/kg/day, 12 days (FIG. 2)): no significant effect

Molecule: L-histidine hydroxamate [His-HXM]
- Percent of maximal effect of insulin, Amino acid-HXM only (10 μM) (rat adipocytes): 4%
- Net Potentiating Effect (%) (rat adipocytes): ˜3%

Molecule: insulin: Porcine insulin purchased from Eli Lilly Co.
- Insulin-stimulated lipogenesis relative to basal (rat adipocytes; [5]): 4-5 fold
- Vinsulin (rat adipocytes; [5]): 8,000-10,000 cpm per 3×10^5 cell/h

Molecule: sodium metavanadate [NaVO3]
- Hexose influx, in words (adipocytes): stimulate hexose influx

— patent US6414029B1, “Vanadium complexes of monohydroxamates and pharmaceutical compositions comprising them” (priority 1997, dated 2002)
